{"source": "patent US20020122835A1", "about": "“Compositions for enhancing muscle tissue recovery and repair” (priority 2001, published 2002)", "origin": "cited, not measured here", "key": {"[1]": {"details": "oral administration, human volunteers; Kobayashi et al 1998"}}}
{"smiles": "CCNC(=O)CC[C@H](N)C(=O)O", "note": "[L-theanine]", "values": [{"measurement": "safety in animal experiments", "value": "safe"}, {"measurement": "feeling of relaxation", "setting": "[1]", "value": "caused a feeling of relaxation"}]}
